# In US20160046672A1, “STAPLING eIF4E INTERACTING PEPTIDES” (AGENCY FOR SCIENCE, TECHNOLOGY AND RESEARCH, priority 2013, published 2016):
# Legend:
# [1] = test system: MDA-MB-231 cells; experiment: Western Blot of protein levels in treated cells, FIG. 12B; assay type: cell-based; settings: MDA-MB-231, absence or presence of 10% Fetal calf serum, 1% DMSO
# From the text: Actin protein is a loading control to indicate that the same amount of proteins was loaded into each well.
# [2] = test system: MDA-MB-231 cells; experiment: Normalized luminescence / cell viability, FIG. 12A; assay type: cell-based; settings: MDA-MB-231, increasing peptide concentration
# Experimental: (§1) FIG. 12A is a dot plot representing normalized luminescence in MDA-MB-468 and MDA-MB-231 cells over increased concentration of staple peptides. MDA-MB-468 and MDA-MB-231 cells were lysed and a recombinant luciferase protein was added to the lysed cells.
# [3] = test system: MDA-MB-468 cells; experiment: Normalized luminescence / cell viability, FIG. 12A; assay type: cell-based; settings: MDA-MB-468, increasing peptide concentration
# Experimental: as §1
# [4] = target: T1, eIF4E (Homo sapiens, UniProt P06730); experiment: eIF4E affinity (SPR/FP, method not named); assay type: binding
# T1 construct: made in house
# T1 sequence (P06730 whole entry): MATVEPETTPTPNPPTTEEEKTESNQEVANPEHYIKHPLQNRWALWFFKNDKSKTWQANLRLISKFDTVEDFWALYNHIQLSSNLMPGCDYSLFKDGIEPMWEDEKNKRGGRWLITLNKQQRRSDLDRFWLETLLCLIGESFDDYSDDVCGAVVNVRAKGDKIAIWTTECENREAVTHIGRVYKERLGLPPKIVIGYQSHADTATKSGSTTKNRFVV
# Experimental: Apparent Kd values were determined for a variety of molecules via competitive anisotropy anisotropy experiments. Titrations were carried out with the concentrations eIF4E held constant at 200 nM, respectively and the labeled peptide at 50 nM. The competing molecules were then titrated against complex of the FAM labeled peptide and protein. Apparent Kd values were determined by fitting the experimental data to the equations shown below: […]
# Six buffer blanks were first injected to equilibrate the instrument fully and then a solvent correction curve was performed followed by a further two blank injections. […] Using a flow rate of 50 μl/min, compounds were injected for 60 s and dissociation was monitored for 180 s. The data collection rate was 10 Hz. Kds were determined using the BiaEvaluation software (Biacore) and calculated kinetically from the dissociation and association phase data for each of the peptides. The kinetic data were fitted to 1:1 binding models. Each individual peptide Kd was determined from three separate titrations. Within each titration at least two concentration points were duplicated to ensure stability and robustness of the chip surface.
# [5] = circular dichroism; settings: 5 mM sodium phosphate; pH 7.0; ns °C; 0.5 or 2 mg/mL
# [6] = Circular dichroism, percent α-helicity in solution; assay type: physicochemical; settings: CD, 5 mM sodium phosphate buffer pH 7.0
# Experimental: CD was measured on a JASCO J-810 spectropolarimeter, and spectra were either recorded with a quartz cuvette (Helmer) with a pathlength of 0.01 cm or 0.1 cm in 5 mM sodium phosphate buffer (pH 7.0). FUV CD spectra were recorded from 260 nm to 200 nm at a peptide concentration of either 2 mg/ml or 0.5 mg/ml, respectively. The CD signal was converted into mean residue ellipticity in units of degree·cm^2·dmol^−1·residue^−1. CD spectra were recorded at a data pitch of 0.2 nm at 50 nm min^−1, a response time of 2 s, and a bandwidth of […]. Once converted to mean residue ellipticity, percent α-helicity can be calculated with equation (1) and (2): […]
# [7] = target: T1, eIF4E; experiment: Competitive fluorescence anisotropy (FP) assay against FAM labeled tracer peptide; assay type: binding
# Experimental: Apparent Kd values were determined for a variety of molecules via competitive anisotropy anisotropy experiments. Titrations were carried out with the concentrations eIF4E held constant at 200 nM, respectively and the labeled peptide at 50 nM. […] Apparent Kd values were determined by fitting the experimental data to the equations shown below:
# [L]st and [L]t denote labeled ligand and total unlabeled ligand input concentrations, respectively. Kd2 is the dissociation constant of the interaction between the unlabelled ligand and the protein. […] Readings were carried out with an Envision Multilabel Reader (PerkinElmer). […] All titrations were carried out in triplicate. Curve-fitting was carried out using Prism 4.0 (GraphPad).
SMILES,Bcl-XL protein levels [1],survivin protein levels [1],cell viability (normalized luminescence) [2],cell viability (normalized luminescence) [3],fold decrease / improvement in Kd over eIF4G^D5S ([4]; stronger binding),helicity [5],Helicity (%) [6],displacement of the FAM labeled peptide in the competition assay [7],affinity / binding to eIF4E (in words) [4]
"CC(=O)N[C@@H](CCCCN)C(=O)N[C@@H](CCCCN)C(=O)N[C@@H](CCCNC(=N)N)C(=O)N[C@@H](Cc1ccc(O)cc1)C(=O)N[C@@H](CO)C(=O)N[C@@H](CCCNC(=N)N)C(=O)N[C@@H](CCC(=O)O)C(=O)N[C@]1(C)CCCC=CCCC[C@@](C)(C(=O)N[C@@H](Cc2ccccc2)C(N)=O)NC(=O)[C@H](CC(C)C)NC(=O)[C@H](CC(C)C)NC1=O [sTIP-03, KKRYSRE*LL*F]",down-regulates,down-regulates,decreases cell viability in a dose-dependent manner,decreases cell viability in a dose-dependent manner,17 fold,45%,,,
"CC(=O)N[C@@H](CCCCN)C(=O)N[C@@H](CCCCN)C(=O)N[C@@H](CCCNC(=N)N)C(=O)N[C@@H](Cc1ccc(O)cc1)C(=O)N[C@@H](CO)C(=O)N[C@@H](CCCNC(=N)N)C(=O)N[C@@H](CCC(=O)O)C(=O)NC(C)(C)C(=O)N[C@@H](CC(C)C)C(=O)N[C@@H](CC(C)C)C(=O)NCC(=O)NC(C)(C)C(N)=O [TIP-02, KKRYSREXLLGX]",,,,,,0%,0/ %,failed to displace the FAM labeled peptide,greatly reduced affinity for eIF4E
